In one experiment the target is T1, hGIPR (Homo sapiens, UniProt P48546).
T1 construct: expressed in transfected cells
T1 sequence (P48546 22-466): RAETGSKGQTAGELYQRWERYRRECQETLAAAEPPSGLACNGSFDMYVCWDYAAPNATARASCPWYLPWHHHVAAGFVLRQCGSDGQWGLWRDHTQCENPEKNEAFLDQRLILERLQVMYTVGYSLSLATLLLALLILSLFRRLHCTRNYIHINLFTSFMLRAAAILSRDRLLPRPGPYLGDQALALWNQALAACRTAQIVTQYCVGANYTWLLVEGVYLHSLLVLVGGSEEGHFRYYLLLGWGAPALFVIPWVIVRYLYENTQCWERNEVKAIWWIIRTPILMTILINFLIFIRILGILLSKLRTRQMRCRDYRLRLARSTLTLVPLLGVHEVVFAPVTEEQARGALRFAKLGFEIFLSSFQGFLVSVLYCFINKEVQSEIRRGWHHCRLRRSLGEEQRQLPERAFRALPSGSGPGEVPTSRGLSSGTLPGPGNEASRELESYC
Description: Functional cAMP formation (HTRF) in HEK-293 clonal cells expressing hGIPR, 0.1% bovine casein, without or with 1.0% human serum albumin. The experiment is classed as cell-based. The note with it: for Emax: read-out: hGIPR Emax, % ± SEM. A digest of the protocol: (§1)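 Cells were stimulated with peptide for 30 min at 37° C, then intracellular cAMP was measured by competitive HTRF (665/620 nm ratio) and converted to nM using a cAMP standard curve. Relative EC50 and Emax came from four-parameter logistic fits of percent maximal response against peptide concentration.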
(cAMP levels reflect the balance of adenylyl cyclase and phosphodiesterase activity.)

The target of experiment [1] is T2, human Gcg receptor (hGcgR) (Homo sapiens, UniProt P47871).
T2 construct: expressed in transfected cells; crude membranes
Description: [125I]-Glucagon binding, SPA with membranes of HEK293 cells expressing hGcgR.

Another experiment addresses hGLP-1R (Homo sapiens, UniProt P43220). Nature of the experiment: Functional cAMP formation (HTRF) in HEK-293 clonal cells expressing hGLP-1R, 0.1% bovine casein, without or with 1.0% human serum albumin. The format is cell-based. More on the design: expressed in transfected cells. The note with it: 37° C. A digest of the protocol:
as §1

In experiment [2] the target is T3, human GIP receptor (hGIPR) (Homo sapiens, UniProt P48546).
T3 construct: expressed in transfected cells; crude membranes
T3 sequence (P48546 22-466): T1 sequence (P48546 22-466)
Description: [125I]-GIP binding, SPA with membranes of CHO cells expressing hGIPR.

Another experiment addresses T4, hGCGR (Homo sapiens, UniProt P47871).
T4 construct: expressed in transfected cells
Description: Functional cAMP formation (HTRF) in HEK-293 clonal cells expressing hGCGR, 0.1% bovine casein, without or with 1.0% human serum albumin. The format is cell-based. A digest of the protocol: as §1

Where [3] appears, read: human GcgR, geometric mean (SEM, n), read-out: Binding Affinity Ki, nM (SEM, n) hGCGR.
Where [4] appears, read: human GIPR, geometric mean (SEM, n), read-out: Binding Affinity Ki, nM (SEM, n) hGIPR.

Where two headings read alike, the source gives them in different places.

Chain of hGLP-1R (P43220 24-463): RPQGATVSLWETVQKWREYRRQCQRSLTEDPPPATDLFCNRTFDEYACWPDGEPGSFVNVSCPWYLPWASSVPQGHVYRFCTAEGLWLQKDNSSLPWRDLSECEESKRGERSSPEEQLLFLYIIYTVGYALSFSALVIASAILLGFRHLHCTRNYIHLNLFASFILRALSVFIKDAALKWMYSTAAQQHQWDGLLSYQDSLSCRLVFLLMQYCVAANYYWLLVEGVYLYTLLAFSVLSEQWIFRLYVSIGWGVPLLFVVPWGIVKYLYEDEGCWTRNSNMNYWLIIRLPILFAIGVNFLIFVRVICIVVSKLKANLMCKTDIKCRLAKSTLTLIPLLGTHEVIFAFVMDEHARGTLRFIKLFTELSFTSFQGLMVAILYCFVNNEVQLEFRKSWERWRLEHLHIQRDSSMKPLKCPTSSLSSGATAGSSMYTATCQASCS
T4 sequence (P47871 26-477): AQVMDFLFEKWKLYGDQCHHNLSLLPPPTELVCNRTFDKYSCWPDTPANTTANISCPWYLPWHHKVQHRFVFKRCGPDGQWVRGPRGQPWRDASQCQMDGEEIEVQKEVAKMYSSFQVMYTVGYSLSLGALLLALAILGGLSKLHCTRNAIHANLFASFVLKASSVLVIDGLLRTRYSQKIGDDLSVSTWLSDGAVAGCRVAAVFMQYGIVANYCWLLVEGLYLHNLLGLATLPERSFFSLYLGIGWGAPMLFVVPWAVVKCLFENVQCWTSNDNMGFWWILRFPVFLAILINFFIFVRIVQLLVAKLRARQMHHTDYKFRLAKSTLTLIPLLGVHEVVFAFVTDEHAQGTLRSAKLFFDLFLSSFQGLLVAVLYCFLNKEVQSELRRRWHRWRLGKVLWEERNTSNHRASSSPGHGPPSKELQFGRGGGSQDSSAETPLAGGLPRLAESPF
T2 sequence (P47871 26-477): as above

Consider `CC[C@H](C)[C@H](NC(=O)[C@H](CC(C)C)NC(=O)[C@](C)(Cc1ccc(O)cc1)NC(=O)[C@@H](CCC(=O)O)NC(=O)[C@@H](NC(=O)[C@H](Cc1ccccc1)NC(=O)[C@H](CCC(=O)O)NC(=O)C(C)(C)NC(=O)[C@H](CCC(N)=O)NC(=O)[C@H](C)NC(=O)[C@H](CCCCNC(=O)[C@@H](N)CCCCNC(=O)COCCOCCNC(=O)COCCOCCNC(=O)CC[C@H](NC(=O)CCCCCCCCCCCCC(=O)O)C(=O)O)NC(=O)[C@H](CCCN)NC(=O)[C@H](CC(=O)O)NC(=O)[C@H](CC(C)C)NC(=O)[C@](C)(CC(C)C)NC(=O)[C@@H](NC(=O)[C@H](CO)NC(=O)[C@H](Cc1ccncc1)NC(=O)[C@H](CC(=O)O)NC(=O)[C@H](CO)NC(=O)[C@@H](NC(=O)[C@](C)(Cc1ccccc1F)NC(=O)[C@@H](NC(=O)CNC(=O)[C@H](CCC(=O)O)NC(=O)C(C)(C)NC(=O)[C@@H](N)Cc1ccc(O)cc1)[C@@H](C)O)[C@@H](C)O)[C@@H](C)CC)[C@@H](C)CC)C(=O)N[C@@H](CCC(=O)O)C(=O)NCC(=O)NCC(=O)N[C@@H](CCCCNC(=O)[C@@H](N)CCCCNC(=O)COCCOCCNC(=O)COCCOCCNC(=O)CC[C@H](NC(=O)CCCCCCCCCCCCC(=O)O)C(=O)O)C(=O)N[C@@H](CO)C(=O)N[C@@H](CO)C(=O)NCC(=O)N[C@@H](C)C(=O)N1CCC[C@H]1C(=O)N1CCC[C@H]1C(=O)N1CCC[C@H]1C(=O)N[C@@H](CO)C(N)=O` [Example 37], for which the EC50 at hGIPR (0.1% bovine casein and 1.0% human serum albumin, 37° C., geometric mean, read-out: hGIPR EC50, nM (SEM, n)) is 0.306 nM; on hGIPR (cAMP, incubated at 37° C., 0.1% bovine casein (no human serum albumin), geometric mean, read-out: hGIPR EC50, nM (SEM, n)) it was 0.0211 nM; on hGLP-1R (0.1% bovine casein and 1.0% human serum albumin, geometric mean, read-out: hGLP-1R EC50, nM (SEM, n)), 17 nM; on hGCGR (0.1% bovine casein and 1.0% human serum albumin, 37° C., geometric mean, read-out: hGCGR EC50, nM (SEM, n)) it was over 9950 nM; at hGCGR (cAMP, incubated at 37° C., 0.1% bovine casein (no human serum albumin), geometric mean, read-out: hGCGR EC50, nM (SEM, n)), over 9950 nM. In addition, the Emax was 88.5 ± 0.188% at hGIPR (HEK293, 0.1% bovine casein and 1.0% human serum albumin, 37° C., percent of maximal response to GIP(1-42)NH2); 91.2 ± 3.67% on hGIPR (HEK293, percent of maximal response to GIP(1-42)NH2, 37° C., 0.1% bovine casein, arithmetic mean). For the same compound, the Ki in experiment [1] (setting [3]) was over 957 nM; in experiment [2] (setting [4]) it was 0.171 nM.

Regarding `CC[C@H](C)[C@H](NC(=O)[C@H](CC(C)C)NC(=O)[C@](C)(Cc1ccc(O)cc1)NC(=O)[C@@H](CCC(=O)O)NC(=O)[C@@H](NC(=O)[C@H](Cc1ccccc1)NC(=O)[C@H](CCCCNC(=O)COCCOCCNC(=O)COCCOCCNC(=O)CC[C@H](NC(=O)CCCCCCCCCCCCC(=O)O)C(=O)O)NC(=O)C(C)(C)NC(=O)[C@H](CCC(N)=O)NC(=O)[C@H](C)NC(=O)[C@H](CCC(N)=O)NC(=O)[C@H](CCCN)NC(=O)[C@H](CC(=O)O)NC(=O)[C@H](CC(C)C)NC(=O)[C@](C)(CC(C)C)NC(=O)[C@@H](NC(=O)C(C)(C)NC(=O)[C@H](Cc1ccncc1)NC(=O)[C@H](CC(=O)O)NC(=O)[C@H](CO)NC(=O)[C@@H](NC(=O)[C@](C)(Cc1ccccc1F)NC(=O)[C@@H](NC(=O)CNC(=O)[C@H](CCC(=O)O)NC(=O)C(C)(C)NC(=O)[C@@H](N)Cc1ccc(O)cc1)[C@@H](C)O)[C@@H](C)O)[C@@H](C)CC)[C@@H](C)CC)C(=O)N[C@@H](CCCCNC(=O)COCCOCCNC(=O)COCCOCCNC(=O)CC[C@H](NC(=O)CCCCCCCCCCCCC(=O)O)C(=O)O)C(=O)NCC(=O)NCC(=O)N1CCC[C@H]1C(=O)N[C@@H](CO)C(=O)N[C@@H](CO)C(=O)NCC(=O)N[C@@H](C)C(=O)N1CCC[C@H]1C(=O)N1CCC[C@H]1C(=O)N1CCC[C@H]1C(=O)N[C@@H](CO)C(N)=O` [Example 488], the Emax at hGIPR (HEK293, cAMP, 37° C., 0.1% bovine casein and 1.0% human serum albumin, percent of maximal response to GIP(1-42)NH2) was determined as 85.5%; on hGLP-1R (HEK293, cAMP, 0.1% bovine casein, percent of maximal response to GLP-1(7-36)NH2, arithmetic mean, read-out: hGLP-1R Emax, % ± SEM), 113%. For the same compound, the EC50 was 0.0115 nM at hGIPR (cAMP, 37° C., 0.1% bovine casein (no human serum albumin), geometric mean, read-out: hGIPR EC50, nM (SEM, n)); 0.718 nM on hGIPR (cAMP, 37° C., 0.1% bovine casein and 1.0% human serum albumin, geometric mean (SEM, n), read-out: hGIPR EC50, nM (SEM, n)); 0.207 nM on hGLP-1R (cAMP, 0.1% bovine casein (no human serum albumin), geometric mean, read-out: hGLP-1R EC50, nM (SEM, n)); 13 nM on hGLP-1R (cAMP, 0.1% bovine casein and 1.0% human serum albumin, geometric mean (SEM, n), read-out: hGLP-1R EC50, nM (SEM, n)); over 10100 nM at hGCGR (cAMP, 37° C., 0.1% bovine casein (no human serum albumin), geometric mean, read-out: hGCGR EC50, nM (SEM, n)); over 9950 nM at hGCGR (cAMP, 37° C., 0.1% bovine casein and 1.0% human serum albumin, geometric mean (SEM, n), read-out: hGCGR EC50, nM (SEM, n)). In addition, the values for the Ki in experiment [1] (setting [3]) and in experiment [2] (setting [4]) were over 958 nM and 0.064 nM, respectively.

Turning to `CC[C@H](C)[C@H](NC(=O)[C@H](CC(C)C)NC(=O)[C@](C)(Cc1ccc(O)cc1)NC(=O)[C@@H](CCC(=O)O)NC(=O)[C@@H](NC(=O)[C@H](Cc1ccccc1)NC(=O)[C@H](CCC(=O)O)NC(=O)C(C)(C)NC(=O)[C@H](CCC(N)=O)NC(=O)[C@H](C)NC(=O)[C@H](CCCCNC(=O)COCCOCCNC(=O)CC[C@H](NC(=O)CCCCCCCCCOc1ccc(C(=O)O)cc1)C(=O)O)NC(=O)[C@H](CCCN)NC(=O)[C@H](CC(=O)O)NC(=O)[C@H](CC(C)C)NC(=O)[C@](C)(CC(C)C)NC(=O)[C@@H](NC(=O)[C@H](CO)NC(=O)[C@H](Cc1ccncc1)NC(=O)[C@H](CC(=O)O)NC(=O)[C@H](CO)NC(=O)[C@@H](NC(=O)[C@](C)(Cc1ccccc1F)NC(=O)[C@@H](NC(=O)CNC(=O)[C@H](CCC(=O)O)NC(=O)C(C)(C)NC(=O)[C@@H](N)Cc1ccc(O)cc1)[C@@H](C)O)[C@@H](C)O)[C@@H](C)CC)[C@@H](C)CC)C(=O)N[C@@H](CCC(=O)O)C(=O)NCC(=O)NCC(=O)N[C@@H](CCCCNC(=O)COCCOCCNC(=O)CC[C@H](NC(=O)CCCCCCCCCOc1ccc(C(=O)O)cc1)C(=O)O)C(=O)N[C@@H](CO)C(=O)N[C@@H](CO)C(=O)NCC(=O)N[C@@H](C)C(=O)N1CCC[C@H]1C(=O)N1CCC[C@H]1C(=O)N1CCC[C@H]1C(=O)N[C@@H](CO)C(N)=O` [Example 12], the EC50 on hGIPR (hGIPR EC50, nM (SEM, n), 0.1% bovine casein and 1.0% human serum albumin, 37° C., geometric mean) is 0.745 nM; at hGIPR (hGIPR EC50, nM (SEM, n), cAMP, incubated at 37° C., 0.1% bovine casein (no human serum albumin), geometric mean), 0.0127 nM; on hGLP-1R (hGLP-1R EC50, nM (SEM, n), 0.1% bovine casein and 1.0% human serum albumin, geometric mean) it was 20.3 nM; on hGCGR (hGCGR EC50, nM (SEM, n), 0.1% bovine casein and 1.0% human serum albumin, 37° C., geometric mean), over 9950 nM; on hGCGR (hGCGR EC50, nM (SEM, n), cAMP, incubated at 37° C., 0.1% bovine casein (no human serum albumin), geometric mean), over 9950 nM. Besides, the Ki in experiment [1] was found to be 213 nM; in experiment [2], 0.0575 nM.

The EC50 is the midpoint of the concentration-response curve. As a reminder, the Emax is the size of the effect at its maximum, as opposed to the concentration needed. As a reminder, the Ki is a dissociation constant, usually derived from enzyme kinetics or from competition with a known ligand.

(Values after US20230265151A1, “GIP/GLP1 CO-AGONIST COMPOUNDS” (priority 2020, published 2023).)
